From ChEMBL document CHEMBL1909046, “DrugMatrix in vitro pharmacology data”

How the values were obtained:
[1] = molecular target: Receptor tyrosine-protein kinase erbB-2 (Homo sapiens, UniProt P04626); assay: biochemical; assay type: cell-based, Insect cells; conditions: insect cells;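 also: inhibition of HER2 kinase enzyme activity, measured with Poly(Glu:Tyr) as the phosphorylation substrate; in other assays of this panel Not Active means under 50% inhibition at 10 µM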
[2] = molecular target: T1, Amine oxidase [flavin-containing] A (Homo sapiens, UniProt P21397); assay: DRUGMATRIX: Monoamine Oxidase MAO-A enzyme inhibition (substrate: Kynuramine); set-up: species or system BTI-TN-5B1-4; conditions: Not Active = under 50% inhibition at 10 µM
T1 sequence (P21397 whole entry): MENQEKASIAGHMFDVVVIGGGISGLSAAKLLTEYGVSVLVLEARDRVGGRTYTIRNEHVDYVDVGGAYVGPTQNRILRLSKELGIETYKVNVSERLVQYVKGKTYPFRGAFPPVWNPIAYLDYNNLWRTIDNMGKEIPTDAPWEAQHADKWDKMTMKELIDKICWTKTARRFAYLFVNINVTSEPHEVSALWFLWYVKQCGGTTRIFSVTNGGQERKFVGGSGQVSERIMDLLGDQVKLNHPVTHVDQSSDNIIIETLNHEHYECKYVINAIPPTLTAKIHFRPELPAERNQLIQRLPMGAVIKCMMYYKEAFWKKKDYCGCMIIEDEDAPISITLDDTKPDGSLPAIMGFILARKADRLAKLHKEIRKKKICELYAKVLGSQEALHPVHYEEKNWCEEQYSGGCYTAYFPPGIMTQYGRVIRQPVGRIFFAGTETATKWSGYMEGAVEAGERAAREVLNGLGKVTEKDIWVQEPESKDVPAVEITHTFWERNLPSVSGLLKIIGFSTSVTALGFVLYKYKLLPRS

Adenosine receptor A3 = molecular target: T2, Adenosine receptor A3 (Homo sapiens, UniProt P0DMS8); assay type: cell membranes, CHO-K1, Membrane; conditions: cho-k1;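 also: radioligand binding assay with AB-MECA serving as the labeled ligand; in other assays of this panel Not Active means under 50% inhibition at 10 µM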
T2 sequence (P0DMS8 whole entry): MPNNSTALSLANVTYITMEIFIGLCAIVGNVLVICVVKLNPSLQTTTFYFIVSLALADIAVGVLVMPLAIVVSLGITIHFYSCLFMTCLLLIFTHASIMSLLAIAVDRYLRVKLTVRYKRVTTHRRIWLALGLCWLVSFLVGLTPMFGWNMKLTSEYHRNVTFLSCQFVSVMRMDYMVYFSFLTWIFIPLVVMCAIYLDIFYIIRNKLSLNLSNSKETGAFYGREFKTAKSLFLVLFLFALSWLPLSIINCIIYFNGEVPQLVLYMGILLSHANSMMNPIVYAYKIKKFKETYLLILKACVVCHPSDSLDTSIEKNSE

[3] = DRUGMATRIX: Calcium Channel Type L, Phenylalkylamine radioligand binding (ligand: [3H] (-)-Desmethoxyverapamil (D-888)); assay type: cell membranes, Rattus norvegicus, Wistar, Brain, Membrane; conditions: Not Active = under 50% inhibition at 10 µM
[4] = DRUGMATRIX: Imidazoline I2, Central radioligand binding (ligand: [3H] Idazoxan); assay type: cell membranes, Rattus norvegicus, Wistar, Cerebral cortex, Membrane; conditions: Not Active = under 50% inhibition at 10 µM
[5] = molecular target: Vascular endothelial growth factor receptor 1 (Homo sapiens, UniProt P17948); assay type: cell-based; conditions: huvec; also: in other assays of this panel Not Active means under 50% inhibition at 10 µM
Vascular endothelial growth factor receptor 1, sequence (P17948 whole entry): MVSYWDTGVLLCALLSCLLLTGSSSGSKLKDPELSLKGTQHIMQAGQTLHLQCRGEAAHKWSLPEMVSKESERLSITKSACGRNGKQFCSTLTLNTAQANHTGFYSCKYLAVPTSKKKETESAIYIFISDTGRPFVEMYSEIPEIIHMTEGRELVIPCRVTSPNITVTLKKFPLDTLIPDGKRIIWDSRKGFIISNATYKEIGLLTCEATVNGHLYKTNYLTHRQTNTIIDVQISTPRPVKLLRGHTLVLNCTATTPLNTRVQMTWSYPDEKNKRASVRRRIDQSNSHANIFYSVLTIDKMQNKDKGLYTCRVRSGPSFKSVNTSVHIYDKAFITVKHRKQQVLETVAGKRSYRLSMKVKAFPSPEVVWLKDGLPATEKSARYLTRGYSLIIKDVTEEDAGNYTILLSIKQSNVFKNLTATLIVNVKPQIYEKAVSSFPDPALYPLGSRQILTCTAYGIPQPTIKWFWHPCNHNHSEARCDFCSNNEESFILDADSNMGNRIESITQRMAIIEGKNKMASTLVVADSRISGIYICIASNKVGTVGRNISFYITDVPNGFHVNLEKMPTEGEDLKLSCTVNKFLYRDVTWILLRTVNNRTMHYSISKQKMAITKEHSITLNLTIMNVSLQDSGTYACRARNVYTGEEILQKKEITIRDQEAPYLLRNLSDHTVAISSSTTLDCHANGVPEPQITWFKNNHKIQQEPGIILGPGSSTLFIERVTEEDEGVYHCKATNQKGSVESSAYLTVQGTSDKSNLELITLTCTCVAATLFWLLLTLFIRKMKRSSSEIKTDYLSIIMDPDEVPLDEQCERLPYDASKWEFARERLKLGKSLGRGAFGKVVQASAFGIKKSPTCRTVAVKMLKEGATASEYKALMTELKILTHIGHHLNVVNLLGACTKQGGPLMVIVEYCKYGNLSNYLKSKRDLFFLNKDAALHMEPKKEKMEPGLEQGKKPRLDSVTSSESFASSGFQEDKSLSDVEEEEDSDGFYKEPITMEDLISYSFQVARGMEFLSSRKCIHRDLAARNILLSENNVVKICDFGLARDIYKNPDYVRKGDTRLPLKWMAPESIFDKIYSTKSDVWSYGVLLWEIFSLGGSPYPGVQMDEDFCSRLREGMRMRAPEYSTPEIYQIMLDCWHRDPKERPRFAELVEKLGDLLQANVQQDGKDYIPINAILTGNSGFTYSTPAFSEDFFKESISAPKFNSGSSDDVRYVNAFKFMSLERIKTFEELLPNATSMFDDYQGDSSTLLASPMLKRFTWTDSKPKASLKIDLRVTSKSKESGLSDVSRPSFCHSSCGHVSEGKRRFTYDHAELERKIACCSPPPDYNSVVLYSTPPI

Molecule | IC50 [1] | IC50 ([2]; bti-tn-5b1-4) | IC50 (Adenosine receptor A3) | IC50 [3] | Ki [3] | IC50 [4] | Ki [4] | IC50 [5] | IC50 ([2]; read-out: IC50) [nM] | IC50 ([4]; read-out: IC50) [nM] | Ki ([4]; read-out: Ki) [nM] | Ki [1] | Ki ([2]; bti-tn-5b1-4) | Ki (Adenosine receptor A3) | Ki [5]
CC(=O)OC[C@H]1O[C@@H](n2ncc(=O)[nH]c2=O)[C@H](OC(C)=O)[C@@H]1OC(C)=O [AZARIBINE] | Not Active | Not Active | Not Active | Not Active | Not Active | Not Active | Not Active | Not Active |  |  |  |  |  |  | 
NC(=O)N1c2ccccc2CC(=O)c2ccccc21 [OXCARBAZEPINE] | Not Active | Not Active | Not Active | Not Active | Not Active | Not Active | Not Active | Not Active |  |  |  |  |  |  | 
C#C[C@]1(O)CC[C@H]2[C@@H]3CCC4=CC(=O)CC[C@]4(C)[C@H]3CC[C@@]21C [ETHISTERONE] | Not Active | Not Active | Not Active | Not Active | Not Active | Not Active | Not Active | Not Active |  |  |  |  |  |  | 
CCC1=C(C)CN(C(=O)NCCc2ccc(S(=O)(=O)NC(=O)N[C@H]3CC[C@H](C)CC3)cc2)C1=O [GLIMEPIRIDE] | Not Active | Not Active | Not Active | Not Active | Not Active | Not Active | Not Active | Not Active |  |  |  |  |  |  | 
O=C(O)CCCc1cccs1 | Not Active | Not Active | Not Active | Not Active | Not Active | Not Active | Not Active | Not Active |  |  |  |  |  |  | 
Cc1ccc(C)c(OCCCC(C)(C)C(=O)O)c1 [GEMFIBROZIL] | Not Active | Not Active | Not Active | Not Active | Not Active | Not Active | Not Active | Not Active |  |  |  |  |  |  | 
O=C(O)CCNC(=O)c1ccc(/N=N/c2ccc(O)c(C(=O)O)c2)cc1 [BALSALAZIDE] | Not Active | Not Active | Not Active | Not Active | Not Active | Not Active | Not Active | Not Active |  |  |  |  |  |  | 
C[S+](C)[O-] [DIMETHYL SULFOXIDE] | Not Active | Not Active | Not Active | Not Active | Not Active | Not Active | Not Active | Not Active |  |  |  |  |  |  | 
O=C(c1ccccc1F)N1CCC(Cc2ccccc2)CC1 | Not Active | Not Active | Not Active | Not Active | Not Active | Not Active | Not Active | Not Active |  |  |  |  |  |  | 
COc1cc(OC)c(C(=O)CCCN2CCCC2)c(OC)c1 [BUFLOMEDIL] | Not Active | Not Active | Not Active | Not Active | Not Active | Not Active | Not Active | Not Active |  |  |  |  |  |  | 
COC(=O)Nc1nc2cc(C(=O)c3ccc(F)cc3)ccc2[nH]1 [FLUBENDAZOLE] | Not Active | Not Active | Not Active | Not Active | Not Active | Not Active | Not Active | Not Active |  |  |  |  |  |  | 
COc1ccnc(C[S+]([O-])c2nc3ccc(OC(F)F)cc3[nH]2)c1OC (stereo not drawn) [PANTOPRAZOLE] | Not Active | Not Active | Not Active | Not Active | Not Active | Not Active | Not Active | Not Active |  |  |  |  |  |  | 
CCc1ccc(CCOc2ccc(CC3SC(=O)NC3=O)cc2)nc1 (stereo not drawn) [PIOGLITAZONE] | Not Active |  | Not Active | Not Active | Not Active | Not Active | Not Active | Not Active | 35100 |  |  |  |  |  | 
CC[C@H]1[C@@H]2C[C@H]3[C@@H]4N(C)c5ccccc5[C@]45C[C@@H]([C@@H]2[C@H]5O)N3[C@@H]1O [AJMALINE] | Not Active | Not Active | Not Active | Not Active | Not Active | Not Active | Not Active | Not Active |  |  |  |  |  |  | 
CNC1=Nc2ccc(Cl)cc2C(c2ccccc2)=[N+]([O-])C1 [CHLORDIAZEPOXIDE] | Not Active | Not Active | Not Active | Not Active | Not Active | Not Active | Not Active | Not Active |  |  |  |  |  |  | 
C[C@@H]1O[C@@H](O[C@H]2C[C@@H](O)[C@]3(CO)[C@H]4[C@H](O)C[C@]5(C)[C@@H](C6=CC(=O)OC6)CC[C@]5(O)[C@@H]4CC[C@]3(O)C2)[C@H](O)[C@H](O)[C@H]1O [OUABAIN] | Not Active | Not Active | Not Active | Not Active | Not Active | Not Active | Not Active | Not Active |  |  |  |  |  |  | 
Cc1cccc(C)c1NC(=O)C1CCCCN1C (stereo not drawn) [MEPIVACAINE] | Not Active | Not Active | Not Active | Not Active | Not Active | Not Active | Not Active | Not Active |  |  |  |  |  |  | 
CC1=NN(c2ccccc2)C(=O)C1 [EDARAVONE] | Not Active | Not Active | Not Active | Not Active | Not Active | Not Active | Not Active | Not Active |  |  |  |  |  |  | 
CC(C)C[C@H]1C(=O)N2CCC[C@H]2[C@]2(O)O[C@](NC(=O)[C@@H]3C=C4c5cccc6[nH]cc(c56)C[C@H]4N(C)C3)(C(C)C)C(=O)N12 [ERGOCRYPTINE] | Not Active | Not Active | Not Active | Not Active | Not Active |  |  | Not Active |  | 3.28 | 2.19 |  |  |  | 
Cc1cc(O)cc(C)c1Cl [CHLOROXYLENOL] | Not Active |  | Not Active | Not Active | Not Active | Not Active | Not Active | Not Active | 1830 |  |  |  |  |  | 
CCOC(=O)c1ncn2c1CN(C)C(=O)c1cc(F)ccc1-2 [FLUMAZENIL] | Not Active | Not Active | Not Active | Not Active | Not Active | Not Active | Not Active | Not Active |  |  |  |  |  |  | 
COBALTOUS CHLORIDE | Not Active | Not Active | Not Active | Not Active | Not Active | Not Active | Not Active | Not Active |  |  |  | Not Active | Not Active | Not Active | Not Active
COc1ccc2c(c1OC)C(=O)O[C@@H]2[C@H]1c2c(cc3c(c2OC)OCO3)CCN1C [NOSCAPINE] | Not Active | Not Active | Not Active | Not Active | Not Active | Not Active | Not Active | Not Active |  |  |  |  |  |  | 
CCN(C(C)=O)c1cccc(-c2ccnc3c(C#N)cnn23)c1 [ZALEPLON] | Not Active | Not Active | Not Active | Not Active | Not Active | Not Active | Not Active | Not Active |  |  |  |  |  |  | 
CN1C(=O)CN=C(c2ccccc2)c2cc([N+](=O)[O-])ccc21 [NIMETAZEPAM] | Not Active | Not Active | Not Active | Not Active | Not Active | Not Active | Not Active | Not Active |  |  |  |  |  |  | 
C[C@@H]1C/C=C/C=C/C=C/C=C/[C@H](O[C@@H]2O[C@H](C)[C@@H](O)[C@H](N)[C@@H]2O)C[C@@H]2O[C@](O)(C[C@@H](O)C[C@H]3O[C@@H]3/C=C/C(=O)O1)C[C@H](O)[C@H]2C(=O)O [NATAMYCIN] | Not Active | Not Active | Not Active | Not Active | Not Active | Not Active | Not Active | Not Active |  |  |  |  |  |  | 
ClC(Cl)(Cl)Cl [CARBON TETRACHLORIDE] | Not Active | Not Active | Not Active | Not Active | Not Active | Not Active | Not Active | Not Active |  |  |  |  |  |  | 
NC12CC3CC(CC(C3)C1)C2 [AMANTADINE] | Not Active | Not Active | Not Active | Not Active | Not Active | Not Active | Not Active | Not Active |  |  |  |  |  |  | 
